Converted amounts (≈) assume the structure as drawn. “And” between values parts separate entries of the source, which are not always exact repeats. Identical values can stand only once. Like-named read-outs stand apart in the source and are kept apart here.

Test [1] deals with S. aureus MRSA (ATCC 33591). As to the kind of experiment: MIC susceptibility testing. Particulars: MRSA ATCC33591; for MIC: Staphylococcus aureus, read-out: (G) MRSA (ATCC33591) MIC. Type of test: cell-based, Staphylococcus aureus. In outline: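 CLSI broth microdilution in triplicate, 5×10^5 CFU/mL final, ≤0.5% DMSO; MHB for S. aureus, CA-MHB for E. coli and E. faecium, CA-MHB plus 3% laked horse blood for S. pyogenes (5% CO2).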

Test [2] has as its system S. aureus MSSA (ATCC 29213). Put plainly: MIC susceptibility testing. The test is classed as cell-based, Staphylococcus aureus. The following applies: S. aureus ATCC 29213; for MIC: Staphylococcus aureus, read-out: (F) S. aureus (ATCC 29213) MIC.
Another test deals with T. brucei. Put plainly: T. brucei growth inhibition. Type of test: cell-based, Trypanosoma brucei. The following applies: read-out: (D) T. brucei EC50.
A further test has as its system C. parvum. As to the kind of experiment: C. parvum growth inhibition. The test is classed as cell-based, Cryptosporidium parvum. The following applies: read-out: (J) C. parvum EC50.
A further test concerns T. cruzi. As to the kind of experiment: T. cruzi growth inhibition. Type of test: cell-based, Trypanosoma cruzi. Particulars: read-out: (E) T. cruzi EC50.
In the next test the target is MetRS (C. parvum) (Cryptosporidium parvum, UniProt Q5CVN0). As to the kind of experiment: MetRS (C. parvum) enzyme inhibition. Type of test: biochemical. The following applies: read-out: (C) MetRS (C. parvum) IC50.
The next test deals with T1, MetRS (T. brucei) (Trypanosoma brucei brucei, UniProt Q38C91).
T1 sequence (Q38C91 1-773): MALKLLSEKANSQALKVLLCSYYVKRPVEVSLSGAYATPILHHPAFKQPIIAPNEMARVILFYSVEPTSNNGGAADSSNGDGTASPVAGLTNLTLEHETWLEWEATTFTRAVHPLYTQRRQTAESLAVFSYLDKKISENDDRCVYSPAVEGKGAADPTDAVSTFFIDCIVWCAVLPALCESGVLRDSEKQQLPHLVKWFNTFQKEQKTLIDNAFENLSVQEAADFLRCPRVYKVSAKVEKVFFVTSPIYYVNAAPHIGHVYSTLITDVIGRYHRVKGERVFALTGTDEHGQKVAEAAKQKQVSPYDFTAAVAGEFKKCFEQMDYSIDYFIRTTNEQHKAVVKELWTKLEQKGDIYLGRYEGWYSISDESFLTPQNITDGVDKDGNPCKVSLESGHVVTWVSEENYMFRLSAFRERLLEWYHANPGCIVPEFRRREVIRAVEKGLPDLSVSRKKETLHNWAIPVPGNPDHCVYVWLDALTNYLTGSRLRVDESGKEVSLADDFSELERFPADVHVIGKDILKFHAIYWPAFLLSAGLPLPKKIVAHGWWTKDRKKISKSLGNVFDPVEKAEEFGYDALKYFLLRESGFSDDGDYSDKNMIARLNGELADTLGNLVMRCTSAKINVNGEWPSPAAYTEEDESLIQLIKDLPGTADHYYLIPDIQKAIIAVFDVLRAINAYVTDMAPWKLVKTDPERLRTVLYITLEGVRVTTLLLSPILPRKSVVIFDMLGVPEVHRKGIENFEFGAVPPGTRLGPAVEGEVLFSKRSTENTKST
As to the kind of experiment: MetRS (T. brucei) enzyme inhibition. The test is classed as biochemical.

In test [3] the test system is E. faecium VRE (ATCC 51559). Put plainly: MIC susceptibility testing. The test is classed as cell-based, Enterococcus faecium. The following applies: E. faecium ATCC 51559; for MIC: Enterococcus faecium, read-out: (I) E. faecium (ATCC 51559) MIC. From the text: Media and culture conditions. Mueller Hinton broth (MHB), cation adjusted Mueller Hinton broth (CA-MHB), and Brain Heart Infusion broth (BHI) were purchased from Becton Dickinson (Franklin Lakes, N.J.). Tryptic soy agar (TSA) plates, TSA with 5% sheep blood plates, and CA-MHB with 3% laked horse blood were purchased from Remel (San Diego, Calif.). MHB was used to assay all Staphylococcus aureus strains. CA-MHB was used for Staphylococcus epidermidis, Enterococcus faecalis, Enterococcus faecium, Escherichia coli, and Pseudomonas aeruginosa. CA-MHB supplemented with 3% laked horse blood was used for Streptococcus pneumoniae and Streptococcus pyogenes. Staphylococcus, Enterococcus, Escherichia, and Pseudomonas strains were cultured at 37° C. with ambient air. Streptococcus strains were cultured in 37° C. with 5% CO2. Separate conditions for radiolabeled precursor uptake assays are described below.
Susceptibility testing: Minimum inhibitory concentration (MIC) determinations were performed in triplicate in 96-well round bottom microtiter plates (Corning, Corning N.Y.) as described by the Clinical and Laboratory Standards Institute (CLSI). Serial two-fold dilutions of compounds were added to plates in 50 μL volumes. An additional 50 μL of media containing bacterial cells (1×10^6 CFUs/mL) was then added to each well. Maximum DMSO concentrations were 0.5%. Plates were incubated at 37° C. for at least 18 h before reading the susceptibility result by optical absorbance (OD600) using a BioTek ELx800. The lowest concentration causing ≥90% growth inhibition compared to the untreated control was recorded as the MIC (and also corresponded to the visual MIC). MICs were measured at least twice and the higher value (if different) was recorded herein.

MetRS (C. parvum), sequence (Q5CVN0 entry or part of it): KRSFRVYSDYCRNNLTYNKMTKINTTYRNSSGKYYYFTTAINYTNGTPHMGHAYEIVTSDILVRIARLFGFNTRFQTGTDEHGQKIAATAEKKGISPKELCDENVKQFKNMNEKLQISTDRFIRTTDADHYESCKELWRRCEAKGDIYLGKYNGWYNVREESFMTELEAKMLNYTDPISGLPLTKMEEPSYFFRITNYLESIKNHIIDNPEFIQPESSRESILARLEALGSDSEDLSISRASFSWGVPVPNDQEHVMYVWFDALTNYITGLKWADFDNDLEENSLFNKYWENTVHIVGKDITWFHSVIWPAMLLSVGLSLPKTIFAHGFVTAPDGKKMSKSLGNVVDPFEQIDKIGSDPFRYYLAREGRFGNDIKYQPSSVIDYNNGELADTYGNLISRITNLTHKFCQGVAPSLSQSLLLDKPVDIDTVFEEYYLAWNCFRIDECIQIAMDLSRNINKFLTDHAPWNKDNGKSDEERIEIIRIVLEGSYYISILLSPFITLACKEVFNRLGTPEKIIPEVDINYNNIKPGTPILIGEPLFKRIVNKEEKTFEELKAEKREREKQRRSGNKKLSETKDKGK

What is called MIC is the smallest concentration in the dilution series that meets the test's criterion for growth inhibition. Broadly, the EC50 is the concentration that produces a half-maximal response. By IC50 is commonly meant the point on the concentration scale where inhibition reaches its midpoint. For `CCn1c(Cc2ccc(Cl)cc2Cl)cn(Cc2cc3nc(F)ccc3[nH]2)c1=O` [Compound 2112, 5-(2,4-dichlorobenzyl)-1-ethyl-3-((5-fluoro-1H-pyrrolo[3,2-b]pyridin-2-yl)methyl)-1H-imidazol-2(3H)-one], the MIC came out at 0.405 µg/mL (≈ 0.966 µM) in test [1] and 0.254 µg/mL (≈ 0.606 µM) in test [2]. Moreover, the results for the EC50 in the test with T. brucei (Trypanosoma brucei), in the test with C. parvum (Cryptosporidium parvum) and in the test with T. cruzi (Trypanosoma cruzi) were 9.56 nM, 620 nM and 176 nM, respectively. Moreover, the IC50 on MetRS (C. parvum) and against MetRS (T. brucei) was less than 40 nM each time.

With `COc1ccc(-c2cccc3nn(Cc4nc5nc(Cl)ccc5[nH]4)cc23)c(Cl)c1` [Compound 2245, 2-({5-chloro-1H-imidazo[4,5-b]pyridin-2-yl}methyl)-4-(2-chloro-4-methoxyphenyl)-2H-indazole], the values for the MIC in test [1] and in test [2] were 0.0378 µg/mL (≈ 0.0891 µM) and 0.0924 µg/mL (≈ 0.218 µM), respectively. In test [2], the “(F) S. aureus (ATCC 29213) MIC” value was 0.0526, μg/ml and 0.0902 μg/ml. Further, the EC50 in the test on T. brucei (Trypanosoma brucei) is 25.4 nM; with T. brucei, 17.3 nM; in the test with C. parvum (Cryptosporidium parvum), greater than 2000 nM. For the same compound, at MetRS (C. parvum), the IC50 was less than 40 nM.

Consider `O=c1n(Cc2nc3nc(F)ccc3[nH]2)cc(Cc2ccc(Cl)cc2Cl)n1CCO` [Compound 2086, 4-[(2,4-dichlorophenyl)-methyl]-1-({5-fluoro-1H-imidazo[4,5-b]pyridin-2-yl}methyl)-3-(2-hydroxyethyl)-2,3-dihydro-1H-imidazol-2-one], for which the minimal inhibitory concentration (MIC) in test [1] is greater than 2.5 µg/mL; in test [2] it was 0.964 µg/mL (≈ 2.21 µM). Also, the EC50 was 5.94 nM with T. brucei (Trypanosoma brucei), 7.64 nM with T. brucei and 552 nM in the test with T. cruzi (Trypanosoma cruzi). Besides, the results for the IC50 at MetRS (C. parvum) and against MetRS (T. brucei) were 41.2 nM and less than 40 nM, respectively.

Consider `COc1ccc(-c2ccc(N)c3nc(Cc4nc5nc(Cl)ccc5[nH]4)cn23)c(Cl)c1` [Compound 2171, 2-({5-chloro-1H-imidazo[4,5-b]pyridin-2-yl}methyl)-5-(2-chloro-4-methoxyphenyl)imidazo[1,2-a]pyridin-8-amine], for which the MIC in test [1] worked out at 1.87 µg/mL (≈ 4.26 µM); in test [2], 1.16 µg/mL (≈ 2.64 µM). Besides, the EC50 in the test on T. brucei (Trypanosoma brucei) was found to be 29 nM; with T. cruzi (Trypanosoma cruzi), 302 nM. The IC50 on MetRS (C. parvum) is 75.3 nM; at MetRS (T. brucei), less than 40 nM.

`COc1cc(Cl)c(-c2nccc3nc(Cc4nc5nc(Cl)ccc5[nH]4)cn23)cc1OC` [Compound 2246, 2-({5-chloro-1H-imidazo[4,5-b]pyridin-2-yl}methyl)-5-(2-chloro-4,5-dimethoxyphenyl)imidazo[1,2-c]pyrimidine]: the MIC amounted to 0.115 µg/mL (≈ 0.253 µM) in test [1] and 0.277 µg/mL (≈ 0.608 µM) in test [2]. The “(F) S. aureus (ATCC 29213) MIC” value in test [2] was 0.497 µg/mL. The EC50 is 6.68 nM with T. brucei (Trypanosoma brucei); 5.68 nM with T. brucei; 359 nM in the test with C. parvum (Cryptosporidium parvum); 300 nM with C. parvum; 17.9 nM with T. cruzi (Trypanosoma cruzi); 20.6 nM with T. cruzi. Also, the IC50 at MetRS (C. parvum) amounted to 55.6 nM.

In the case of `COc1ccc(-c2cccc3c2CN(Cc2nc4nc(C)nc(N)c4[nH]2)C3=O)c(Cl)c1` [Compound 2251, 2-((6-amin0-2-methyl-7H-purin-8-yl)methyl)-4-(2-chloro-4-methoxyphenyl)isoindolin-1-one], the EC50 was 166 nM in the test with T. brucei (Trypanosoma brucei), greater than 2000 nM in the test with C. parvum (Cryptosporidium parvum) and 811 nM with T. cruzi (Trypanosoma cruzi). Also, the IC50 at MetRS (C. parvum) is less than 40 nM. Further, the MIC in test [3] is greater than 4 µg/mL.

For the compound `COc1ccc(Cc2cn(Cc3nc4nc(Br)ccc4[nH]3)c(=O)n2CC(F)F)c(Cl)c1` [Compound 2257, 1-({5-bromo-1H-imidazo[4,5-b]pyridin-2-yl}methyl)-4-[(2-chloro-4-methoxyphenyl)methyl]-3-(2,2-difluoroethyl)-2,3-dihydro-1H-imidazol-2-one], the MIC in test [1] was 0.876 µg/mL (≈ 1.71 µM). For the same compound, the EC50 with C. parvum (Cryptosporidium parvum) is 310 nM; in the test with C. parvum, 219 nM; in the test with T. cruzi (Trypanosoma cruzi), 8.03 nM; in the test with T. cruzi, 8.17 nM.

On to `COc1ccc(-c2nccc3nc(Cc4nc5ccc(Cl)nc5[nH]4)cn23)c(Cl)c1` [Compound 2256, 2-({5-chloro-1H-imidazo[4,5-b]pyridin-2-yl}methyl)-5-(2-chloro-4-methoxyphenyl)imidazo[1,2-c]pyrimidine], for which the “(G) MRSA (ATCC33591) MIC” value in test [1] turned out to be 1.59 µg/mL. Moreover, the MIC in test [1] was greater than 2 µg/mL. Moreover, the EC50 with T. brucei (Trypanosoma brucei) came to 12.3 nM; with T. brucei, 20.3 nM; with C. parvum (Cryptosporidium parvum), 1940 nM; in the test on T. cruzi (Trypanosoma cruzi), 76.5 nM; with T. cruzi it was 77.2 nM.

Consider `COc1ccc(-c2cccc3c2CN(Cc2nc4c(N)ncnc4[nH]2)C3=O)c(Cl)c1` [Compound 2239, 2-((6-amino-9H-purin-8-yl)methyl)-4-(2-chloro-4-methoxyphenyl)isoindolin-1-one], for which the minimal inhibitory concentration (MIC) in test [1] and in test [2] was greater than 2 µg/mL in each case. The EC50 is 267 nM in the test with T. brucei (Trypanosoma brucei), greater than 2000 nM with C. parvum (Cryptosporidium parvum) and 3880 nM in the test with T. cruzi (Trypanosoma cruzi). The IC50 on MetRS (C. parvum) and at MetRS (T. brucei) was less than 40 nM throughout.

In the case of `COc1cc(Cl)c(-c2nccc3nc(Cc4nc5c(Cl)c(Cl)ccc5[nH]4)cn23)cc1OC` [Compound 2255, 6,7-dichlor0-2-{[5-(2-chloro-4,5-dimethoxyphenyl)imidazo[1,2-c]pyrimidin-2-yl]methyl}-1H-1,3-benzodiazole], the MIC in test [1] and in test [2] was 1.82 µg/mL (≈ 3.72 µM) in each case. Moreover, the “(F) S. aureus (ATCC 29213) MIC” value in test [2] stood at 2.93 µg/mL. Also, the EC50 with T. brucei (Trypanosoma brucei) is 71.5 nM; with C. parvum (Cryptosporidium parvum) it was greater than 2000 nM; with T. cruzi (Trypanosoma cruzi), 165 nM. Besides, the IC50 at MetRS (C. parvum) stood at 277 nM.

Consider `COc1ccc(-c2nccn3c(=S)n(Cc4nc5nc(Cl)ccc5[nH]4)cc23)c(Cl)c1` [Compound 2250, 2-({5-chloro-1H-imidazo[4,5-b]pyridin-2-yl}methyl)-8-(2-chloro-4-methoxyphenyl)-2H,3H-imidazo[1,5-a]pyrazine-3-thione], for which the half-maximal effective concentration (EC50) with T. brucei (Trypanosoma brucei) turned out to be 28.9 nM. Moreover, in test [3], the “(I) E. faecium (ATCC 51559) MIC” value turned out to be 1.01 µg/mL and the MIC was 1.35 µg/mL (≈ 2.95 µM).

With `COc1ccc(-c2nccn3c(=O)n(Cc4nc5c(Cl)c(Cl)ccc5[nH]4)cc23)c(Cl)c1` [Compound 2254, 8-(2-chloro-4-methoxyphenyl)-2-[(6,7-dichloro-1H-1,3-benzodiazol-2-yl)methyl]-2H,3H-imidazo[1,5-a]pyrazin-3-one], the MIC in test [1] is greater than 2 µg/mL. Besides, the EC50 in the test with T. brucei (Trypanosoma brucei) is 168 nM. The IC50 at MetRS (C. parvum) worked out at 138 nM.

For the compound `COc1ccc(-c2cccc3c2CN(Cc2nc4nc(C(F)(F)F)nc(N)c4[nH]2)C3=O)c(Cl)c1` [Compound 2252, 2-((6-amin0-2-(trifluoromethyl)-7H-purin-8-yl)methyl)-4-(2-chloro-4-methoxyphenyl)isoindolin-1-one], the MIC in test [1] was greater than 2 µg/mL. Also, the EC50 with T. brucei (Trypanosoma brucei) came to 268 nM; in the test on T. cruzi (Trypanosoma cruzi), 630 nM. Moreover, the IC50 on MetRS (C. parvum) turned out to be 431 nM.

Source of the values: US11584744B2 (UNIVERSITY OF WASHINGTON, priority 2017, dated 2023).
